In ChEMBL document CHEMBL1125224, “Examination of HIV-1 protease secondary structure specificity using conformationally constrained inhibitors” (J Med Chem, 1991):
pIC50: −log10 of the molar value.

Target: Human immunodeficiency virus type 1 protease (Human immunodeficiency virus 1, UniProt Q72874)
Test: Concentration required to inhibit HIV-1 protease activity calculated from plots of % inhibition vs inhibitor concentration

Compound | pIC50
CC[C@H](C)[C@H](NC(=O)C[C@H](O)[C@H](CC1CCCCC1)NC(=O)CC1C=CCN2C(=O)CCC(CNCc3ccccc3)C(=O)N12)C(=O)N[C@@H](Cc1ccccc1)C(=O)O (stereo not given in full) | 3.44
CC[C@H](C)[C@H](NC(=O)C[C@H](O)[C@H](CC(C)C)NC(=O)CC1C=CCN2C(=O)CCC(CNCc3ccccc3)C(=O)N12)C(=O)N[C@@H](Cc1ccccc1)C(=O)OC (stereo not given in full) | 3.85
CCC(C)[C@H](NC(=O)C[C@H](O)[C@H](Cc1ccccc1)NC(=O)CC1C=CCN2C(=O)CCC(CNCc3ccccc3)C(=O)N12)C(=O)N[C@@H](Cc1ccccc1)C(=O)OC (stereo not given in full) | 3.46
CCC(C)[C@H](NC(=O)C[C@H](O)[C@H](CC1CCCCC1)NC(=O)CC1CCCN2C(=O)CCC(CN)C(=O)N12)C(=O)N[C@@H](Cc1ccccc1)C(N)=O (stereo not given in full) | 7.59
CCC(C)[C@H](NC(=O)C[C@H](O)[C@H](CC(C)C)NC(=O)CC1C=CCN2C(=O)CCC(CNCc3ccccc3)C(=O)N12)C(=O)N[C@@H](Cc1ccccc1)C(N)=O (stereo not given in full) | 4.68
